Measured values from patent US20060172993A1 (priority 2002, published 2006).

Tested on: Patients diagnosed with Alzheimer's Disease
Test: Adverse events / safety monitoring in the trial
Format: in vivo, human
Description: Subjects in the Placebo group received 21 weeks (5 months) of placebo medication.
The safety of the drug was also monitored throughout the study. Blood samples for biochemistry and haematology and random urine sample for urinalysis were taken at each visit and at completion for all efficacy testing. Systolic and diastolic blood pressure were measured in the sitting position, pulse and vital signs were recorded at each visit.

In the case of `COc1ccc2c3c1O[C@H]1C[C@@H](O)C=C[C@@]31CCN(C)C2` [GAL, galantamine], the “Serious adverse event Basal cell carcinoma, % of patients” value (16 mg/day) is reported as “(0.0%)”, the “Serious adverse event Basal cell carcinoma, number of patients” value (16 mg/day) is reported as 0 and the “Serious adverse event Breast neoplasm female, % of patients” value (16 mg/day) is reported as “(0.0%)”. The “Serious adverse event Breast neoplasm female, number of patients” value (16 mg/day) was 0, the “Serious adverse event Cardiac failure, % of patients” value (16 mg/day) was “(1.1%)” and the “Serious adverse event Cardiac failure, number of patients” value (16 mg/day) was 3. For the same compound, the “Serious adverse event Dehydration, % of patients” value (16 mg/day) was “(1.1%)”, the “Serious adverse event Dehydration, number of patients” value (16 mg/day) was 3 and the “Serious adverse event Diarrhea, % of patients” value (16 mg/day) was “(1.1%)”. For the same compound, the “Serious adverse event Diarrhea, number of patients” value (16 mg/day) was 3, the “Serious adverse event Dyspnea, % of patients” value (16 mg/day) was “(0.7%)” and the “Serious adverse event Dyspnea, number of patients” value (16 mg/day) was 2. The “Serious adverse event Fall, % of patients” value (16 mg/day) was “(0.4%)”, the “Serious adverse event Fall, number of patients” value (16 mg/day) was 1 and the “Serious adverse event Gi haemorrhage, % of patients” value (16 mg/day) was “(0.0%)”. For the same compound, the “Serious adverse event Gi haemorrhage, number of patients” value (16 mg/day) was 0, the “Serious adverse event Injury, % of patients” value (16 mg/day) was “(0.4%)” and the “Serious adverse event Injury, number of patients” value (16 mg/day) was 1. The “Serious adverse event Myocardial infarction, % of patients” value (16 mg/day) was “(0.4%)”, the “Serious adverse event Myocardial infarction, number of patients” value (16 mg/day) was 1 and the “Serious adverse event Nausea, % of patients” value (16 mg/day) was “(0.7%)”. The “Serious adverse event Nausea, number of patients” value (16 mg/day) was 2, the “Serious adverse event Pneumonia, % of patients” value (16 mg/day) was “(0.7%)” and the “Serious adverse event Pneumonia, number of patients” value (16 mg/day) was 2. For the same compound, the “Serious adverse event Sepsis, % of patients” value (16 mg/day) was “(0.0%)”, the “Serious adverse event Sepsis, number of patients” value (16 mg/day) was 0 and the “Serious adverse event Surgical intervention, % of patients” value (16 mg/day) was “(1.1%)”. For the same compound, the “Serious adverse event Surgical intervention, number of patients” value (16 mg/day) was 3, the “Serious adverse event Syncope, % of patients” value (16 mg/day) was “(1.4%)” and the “Serious adverse event Syncope, number of patients” value (16 mg/day) was 4. The “Serious adverse event Thrombophlebitis deep, % of patients” value (16 mg/day) was “(0.0%)”, the “Serious adverse event Thrombophlebitis deep, number of patients” value (16 mg/day) was 0 and the “Serious adverse event Transient ischemic attack, % of patients” value (16 mg/day) was “(0.7%)”. The “Serious adverse event Transient ischemic attack, number of patients” value (16 mg/day) was 2, the “Serious adverse event Urinary tract infection, % of patients” value (16 mg/day) was “(0.7%)” and the “Serious adverse event Urinary tract infection, number of patients” value (16 mg/day) was 2. For the same compound, the “Serious adverse event Vomiting, % of patients” value (16 mg/day) was “(0.7%)”, the “Serious adverse event Vomiting, number of patients” value (16 mg/day) was 2 and the “Total patients with any SAE, %” value (16 mg/day) was “(10.0%)”. For the same compound, the “Total patients with any SAE, number” value (16 mg/day) was 28, the “Adverse event Agitation, % of patients” value (24 mg/day) was “(8.1%)” and the “Adverse event Agitation, number of patients” value (24 mg/day) was 22. For the same compound, the “Adverse event Anorexia, % of patients” value (24 mg/day) was “(8.8%)”, the “Adverse event Anorexia, number of patients” value (24 mg/day) was 24 and the “Adverse event Depression, % of patients” value (24 mg/day) was “(8.%)”. For the same compound, the “Adverse event Depression, number of patients” value (24 mg/day) was 22, the “Adverse event Diarrhea, % of patients” value (24 mg/day) was “(5.5%)” and the “Adverse event Diarrhea, number of patients” value (24 mg/day) was 15. For the same compound, the “Adverse event Dizziness, % of patients” value (24 mg/day) was “(7.0%)”, the “Adverse event Dizziness, number of patients” value (24 mg/day) was 19 and the “Adverse event Dyspepsia, % of patients” value (24 mg/day) was “(5.5%)”. For the same compound, the “Adverse event Dyspepsia, number of patients” value (24 mg/day) was 15, the “Adverse event Edema peripheral, % of patients” value (24 mg/day) was “(2.6%)” and the “Adverse event Edema peripheral, number of patients” value (24 mg/day) was 7. For the same compound, the “Adverse event Fall, % of patients” value (24 mg/day) was “(4.4%)”, the “Adverse event Fall, number of patients” value (24 mg/day) was 12 and the “Adverse event Headache, % of patients” value (24 mg/day) was “(4.8%)”. The “Adverse event Headache, number of patients” value (24 mg/day) was 13, the “Adverse event Injury, % of patients” value (24 mg/day) was “(5.9%)” and the “Adverse event Injury, number of patients” value (24 mg/day) was 16. The “Adverse event Nausea, % of patients” value (24 mg/day) was “(16.5%)”, the “Adverse event Nausea, number of patients” value (24 mg/day) was 45 and the “Adverse event Rhinitis, % of patients” value (24 mg/day) was “(4.0%)”. For the same compound, the “Adverse event Rhinitis, number of patients” value (24 mg/day) was 11, the “Adverse event Urinary tract infection, % of patients” value (24 mg/day) was “(8.1%)” and the “Adverse event Urinary tract infection, number of patients” value (24 mg/day) was 22. The “Adverse event Vomiting, % of patients” value (24 mg/day) was “(9.9%)”, the “Adverse event Vomiting, number of patients” value (24 mg/day) was 27 and the “Adverse event Weight decrease, % of patients” value (24 mg/day) was “(4.8%)”. The “Adverse event Weight decrease, number of patients” value (24 mg/day) was 13, the “Adverse event of clinical interest Bradycardia, % of patients” value (24 mg/day) was “(2.9%)” and the “Adverse event of clinical interest Bradycardia, number of patients” value (24 mg/day) was 8. For the same compound, the “Adverse event of clinical interest Convulsions, % of patients” value (24 mg/day) was “(0.4%)”, the “Adverse event of clinical interest Convulsions, number of patients” value (24 mg/day) was 1 and the “Adverse event of clinical interest Fatigue, % of patients” value (24 mg/day) was “(4.8%)”. For the same compound, the “Adverse event of clinical interest Fatigue, number of patients” value (24 mg/day) was 13, the “Adverse event of clinical interest Muscle weakness, % of patients” value (24 mg/day) was “(0.4%)” and the “Adverse event of clinical interest Muscle weakness, number of patients” value (24 mg/day) was 1. The “Adverse event of clinical interest Syncope, % of patients” value (24 mg/day) was “(3.3%)”, the “Adverse event of clinical interest Syncope, number of patients” value (24 mg/day) was 9 and the “Serious adverse event Abdominal pain, % of patients” value (24 mg/day) was “(0.0%)”. For the same compound, the “Serious adverse event Abdominal pain, number of patients” value (24 mg/day) was 0, the “Serious adverse event Agitation, % of patients” value (24 mg/day) was “(0.0%)” and the “Serious adverse event Agitation, number of patients” value (24 mg/day) was 0. The “Serious adverse event Asthenia, % of patients” value (24 mg/day) was “(0.4%)”, the “Serious adverse event Asthenia, number of patients” value (24 mg/day) was 1 and the “Serious adverse event Basal cell carcinoma, % of patients” value (24 mg/day) was “(0.7%)”. The “Serious adverse event Basal cell carcinoma, number of patients” value (24 mg/day) was 2, the “Serious adverse event Breast neoplasm female, % of patients” value (24 mg/day) was “(0.0%)” and the “Serious adverse event Breast neoplasm female, number of patients” value (24 mg/day) was 0. The “Serious adverse event Cardiac failure, % of patients” value (24 mg/day) was “(0.0%)”, the “Serious adverse event Cardiac failure, number of patients” value (24 mg/day) was 0 and the “Serious adverse event Dehydration, % of patients” value (24 mg/day) was “(0.0%)”. For the same compound, the “Serious adverse event Dehydration, number of patients” value (24 mg/day) was 0, the “Serious adverse event Diarrhea, % of patients” value (24 mg/day) was “(0.0%)” and the “Serious adverse event Diarrhea, number of patients” value (24 mg/day) was 0. The “Serious adverse event Dyspnea, % of patients” value (24 mg/day) was “(1.1%)”, the “Serious adverse event Dyspnea, number of patients” value (24 mg/day) was 3 and the “Serious adverse event Fall, % of patients” value (24 mg/day) was “(1.1%)”. The “Serious adverse event Fall, number of patients” value (24 mg/day) was 3, the “Serious adverse event Gi haemorrhage, % of patients” value (24 mg/day) was “(0.7%)” and the “Serious adverse event Gi haemorrhage, number of patients” value (24 mg/day) was 2. For the same compound, the “Serious adverse event Injury, % of patients” value (24 mg/day) was “(1.8%)”, the “Serious adverse event Injury, number of patients” value (24 mg/day) was 5 and the “Serious adverse event Myocardial infarction, % of patients” value (24 mg/day) was “(0.4%)”. For the same compound, the “Serious adverse event Myocardial infarction, number of patients” value (24 mg/day) was 1, the “Serious adverse event Nausea, % of patients” value (24 mg/day) was “(0.0%)” and the “Serious adverse event Nausea, number of patients” value (24 mg/day) was 0. The “Serious adverse event Pneumonia, % of patients” value (24 mg/day) was “(1.1%)”, the “Serious adverse event Pneumonia, number of patients” value (24 mg/day) was 3 and the “Serious adverse event Sepsis, % of patients” value (24 mg/day) was “(0.0%)”. For the same compound, the “Serious adverse event Sepsis, number of patients” value (24 mg/day) was 0, the “Serious adverse event Surgical intervention, % of patients” value (24 mg/day) was “(0.0%)” and the “Serious adverse event Surgical intervention, number of patients” value (24 mg/day) was 0. For the same compound, the “Serious adverse event Syncope, % of patients” value (24 mg/day) was “(1.8%)”, the “Serious adverse event Syncope, number of patients” value (24 mg/day) was 5 and the “Serious adverse event Thrombophlebitis deep, % of patients” value (24 mg/day) was “(0.7%)”. The “Serious adverse event Thrombophlebitis deep, number of patients” value (24 mg/day) was 2, the “Serious adverse event Transient ischemic attack, % of patients” value (24 mg/day) was “(0.0%)” and the “Serious adverse event Transient ischemic attack, number of patients” value (24 mg/day) was 0. The “Serious adverse event Urinary tract infection, % of patients” value (24 mg/day) was “(0.0%)”, the “Serious adverse event Urinary tract infection, number of patients” value (24 mg/day) was 0 and the “Serious adverse event Vomiting, % of patients” value (24 mg/day) was “(0.4%)”. The “Serious adverse event Vomiting, number of patients” value (24 mg/day) was 1, the “Syncope incidence” value (24 mg/day) was “slight dose-related increase in incidence” and the “Total patients with any SAE, %” value (24 mg/day) was “(12.8%)”. For the same compound, the “Total patients with any SAE, number” value (24 mg/day) was 35, the “Occurrence of nausea, vomiting and anorexia” value (8, 16, 24 mg/day) was “mild dose-related occurrence at a relatively low incidence” and the “Bradycardia incidence compared with placebo” value (all galantamine doses) was “higher incidence”. For the same compound, the “Incidence of serious adverse events” value (all treatment groups) was “comparable across all treatment groups” and the “Deaths related to trial medication” value (throughout the trial) was “No death was considered by the investigator to be related to trail medication”.
